Test results as given in patent publication US7604978B2, “Inhibition of biofilm formation” (Sequoia Sciences, Inc., priority 2004, dated 2009).

Experiments:
Type in all cases: cell-based
E. coli K12 [R1drd19] = assay: Inhibition of biofilm formation (biofilm mass, OD540)
Protocol: (§1) Inhibition of biofilm formation by E. coli K12 [R1drd19], P. aeruginosa PAO1, and V harveyi BB120 by the addition of 10 μg/mL ursolic acid. For E. coli K12 [R1drd19], data were collected 16 hours after addition of ursolic acid to a 24 hour biofilm in LB medium; for P. aeruginosa PAO1, data were collected 18 hours after addition of ursolic acid with inoculation in LB medium plus 1% sodium citrate; and for V. harveyi BB120, data were collected 18 hours after addition of ursolic acid with inoculation in M9 medium. All biofilm mass readings at OD540 were normalized based on the reading of wild type without ursolic acid which was normalized to 1. One standard deviation is shown.

P. aeruginosa PAO1 = assay: as above
Protocol: as §1

V. harveyi BB120 = assay: as above
Protocol: as §1

E. coli JM109 = assay: Inhibition of air-liquid interface biofilm; conditions: added with inoculation, E. coli JM109 in LB 0.2% glucose
Protocol: as §1
Example 1 was repeated, except ursolic acid was added with inoculation in E. coli JM109 grown in LB 0.2% glucose.

E. coli K12 genes = assay: DNA microarray, genes repressed by ursolic acid
Protocol: To identify the genes controlled by ursolic acid, E. coli K12 was grown in LB medium overnight, diluted 1:100 in fresh LB supplemented with 0, 10, or 30 μg/mL ursolic acid. The same amount of ethanol was supplemented to eliminate solvent effects. The cultures were grown to an OD600 of 0.9. The cells were centrifuged in a microcentrifuge for 15 seconds at 20,000×g in mini bead beater tubes (Biospec, Bartlesville, Okla.) that were cooled to −80° C. before sampling. The cell pellets were flash frozen in a dry ice-ethanol bath and stored at −80° C. until RNA isolation.
To lyse the cells, 1.0 mL RLT buffer (Qiagen, Inc., Valencia, Calif.) and 0.2 mL 0.1 mm zirconia/silica beads (Biospec) were added to the frozen bead beater tubes containing the cell pellets. The tubes were closed tightly and beat for 30 seconds at the maximum speed in a mini bead beater (cat. no. 3110BX, Biospec). The total RNA was isolated by following the protocol of the RNeasy Mini Kit (Qiagen) including an on-column DNase digestion with RNase-free DNase I (Qiagen). OD260 was used to quantify the RNA yield. OD260/OD280 and 23S/16S rRNA were measured using a 2100 Bioanalyzer (Agilent Technologies, Palo Alto, Calif.) to check the purity and integrity of RNA (RNeasy Mini handbook, Qiagen).
The E. coli DNA microarrays were prepared as described previously by Wei, Y. et al (Journal of Bacteriology, 2001, 183 (2) p. 545-556). Each gene probe was synthesized by PCR and has the size of the full open reading frame (200-2000 nt). The double-strand PCR products were denatured in 50% dimethyl sulfoxide and spotted onto aminosilane slides (Full Moon Biosystems, Sunnyvale, Calif.) as probes to hybridize with the mRNA-derived cDNA samples. It has been shown that each array can detect 4228 of the 4290 E. coli ORFs. Each gene has two spots per slide.
Briefly, the total RNA from the E. coli K12 samples grown with and without ursolic acid was first converted into labeled cDNA. […] The Cy3-labeled sample without ursolic acid and the Cy5-labeled ursolic acid sample (with 10 or 30 μg/mL ursolic acid) were hybridized on the first slide. Similarly, the Cy5-labeled sample without ursolic acid and the Cy3-labeled ursolic acid sample were hybridized on the second slide. Since each gene has two spots on a slide, the two hybridizations generated eight data points for each gene (four points for the sample without ursolic acid and four points for the ursolic acid sample). The microarray experiments with dye-swapping were repeated for both concentrations of ursolic acid.
The DNA microarrays were incubated in prehybridization solution (3.5×SSC [1×SSC is 0.15 M NaCl plus 0.015 M sodium citrate] [Invitrogen], 0.1% sodium dodecyl sulfate [SDS] [Invitrogen], and 0.1% bovine serum albumin [Invitrogen]) at 45° C. for 20 min. The arrays were rinsed with double-distilled water and were spun dry by centrifugation. Labeled cDNA (6 μg) was concentrated to 10 μl of total volume and was mixed with 10 μl of 4×cDNA hybridization solution (Full Moon Biosystems) and 20 μl of formamide (EM Science, Gibbstown, N.J.). The hybridization mix was heated to 95° C. for 2 min and was added to the DNA microarrays; each array was covered with a coverslip (Corning, Big Flats, N.Y.) and was incubated overnight at 37° C. for hybridization. When the hybridization was finished, the coverslips were removed in 1×SSC-0.1% SDS at room temperature, and the arrays were washed once for 5 min in 1×SSC-0.1% SDS at 40° C., twice for 10 min in 0.1×SSC-0.1% SDS at 40° C., and twice for 1 min in 0.1×SSC at 40° C. The arrays were quickly rinsed by dipping in room-temperature double-distilled water and were then spun dry by centrifugation. The hybridized slides were scanned with the Generation III Array Scanner (Molecular Dynamics Corp.). Readings at 570 and 670 nm was used to quantify the probes labeled with Cy3 and Cy5 separately. The signal was quantified with Array Vision 4.0 or 6.0 software (Imaging Research, St. Catherines, Ontario, Canada). […]

SMILES: C[C@H]1[C@H](C)CC[C@]2(C(=O)O)CC[C@]3(C)C(=CC[C@@H]4[C@@]5(C)CC[C@H](O)C(C)(C)[C@@H]5CC[C@]43C)[C@H]12 [ursolic acid]
- formation of biofilms (E. coli K12 [R1drd19]): reduces or inhibits the formation of biofilms
- formation of biofilms (P. aeruginosa PAO1): reduces or inhibits the formation of biofilms
- formation of biofilms (V. harveyi BB120): reduces or inhibits the formation of biofilms
- air-liquid interface biofilm (E. coli JM109): inhibited air-liquid interface biofilm
- ER (expression ratio) gene arsC (E. coli K12 genes; 10 μg/mL ursolic acid): −1.5
- ER (expression ratio) gene b0309 (E. coli K12 genes; 10 μg/mL ursolic acid): −1.7
- ER (expression ratio) gene b0484 (E. coli K12 genes; 10 μg/mL ursolic acid): −1.5
- ER (expression ratio) gene b0485 (E. coli K12 genes; 10 μg/mL ursolic acid): −1.8
- ER (expression ratio) gene b0829 (E. coli K12 genes; 10 μg/mL ursolic acid): −1.5
- ER (expression ratio) gene b1729 (E. coli K12 genes; 10 μg/mL ursolic acid): −5.6
- ER (expression ratio) gene b2379 (E. coli K12 genes; 10 μg/mL ursolic acid): −1.5
- ER (expression ratio) gene b2789 (E. coli K12 genes; 10 μg/mL ursolic acid): −1.9
- ER (expression ratio) gene cspF (E. coli K12 genes; 10 μg/mL ursolic acid): −1.6
- ER (expression ratio) gene cspG (E. coli K12 genes; 10 μg/mL ursolic acid): −2.5
- ER (expression ratio) gene cysB (E. coli K12 genes; 10 μg/mL ursolic acid): −1.7
- ER (expression ratio) gene cysD (E. coli K12 genes; 10 μg/mL ursolic acid): −2.5
- ER (expression ratio) gene cysI (E. coli K12 genes; 10 μg/mL ursolic acid): −1.5
- ER (expression ratio) gene cysJ (E. coli K12 genes; 10 μg/mL ursolic acid): −3.6
- ER (expression ratio) gene cysK (E. coli K12 genes; 10 μg/mL ursolic acid): −3.6
- ER (expression ratio) gene frvR (E. coli K12 genes; 10 μg/mL ursolic acid): −5.4
- ER (expression ratio) gene gntU_1 (E. coli K12 genes; 10 μg/mL ursolic acid): −1.5
- ER (expression ratio) gene hdeA (E. coli K12 genes; 10 μg/mL ursolic acid): −1.7
- ER (expression ratio) gene hdeB (E. coli K12 genes; 10 μg/mL ursolic acid): −1.8
- ER (expression ratio) gene narH (E. coli K12 genes; 10 μg/mL ursolic acid): −1.6
- ER (expression ratio) gene pheM (E. coli K12 genes; 10 μg/mL ursolic acid): −1.6
- ER (expression ratio) gene pheP (E. coli K12 genes; 10 μg/mL ursolic acid): −1.5
- ER (expression ratio) gene rimL (E. coli K12 genes; 10 μg/mL ursolic acid): −1.5
- ER (expression ratio) gene rmf (E. coli K12 genes; 10 μg/mL ursolic acid): −1.5
- ER (expression ratio) gene rpml (E. coli K12 genes; 10 μg/mL ursolic acid): −1.6
- ER (expression ratio) gene slp (E. coli K12 genes; 10 μg/mL ursolic acid): −1.5
- ER (expression ratio) gene ugpB (E. coli K12 genes; 10 μg/mL ursolic acid): −1.4
- ER (expression ratio) gene ybhG (E. coli K12 genes; 10 μg/mL ursolic acid): −1.4
- ER (expression ratio) gene ybiK (E. coli K12 genes; 10 μg/mL ursolic acid): −2.4
- ER (expression ratio) gene yeeD (E. coli K12 genes; 10 μg/mL ursolic acid): −2.3
- ER (expression ratio) gene yeeE (E. coli K12 genes; 10 μg/mL ursolic acid): −13
- ER (expression ratio) gene yhaD (E. coli K12 genes; 10 μg/mL ursolic acid): −1.6
- ER (expression ratio) gene yhaF (E. coli K12 genes; 10 μg/mL ursolic acid): −1.5
- ER (expression ratio) gene yhaG (E. coli K12 genes; 10 μg/mL ursolic acid): −2
- ER (expression ratio) gene yhaU (E. coli K12 genes; 10 μg/mL ursolic acid): −1.9
- ER (expression ratio) gene yjeB (E. coli K12 genes; 10 μg/mL ursolic acid): −1.4
- ER (expression ratio) gene arsC (E. coli K12 genes; 30 μg/mL ursolic acid): 1.4
- ER (expression ratio) gene b0309 (E. coli K12 genes; 30 μg/mL ursolic acid): −1.3
- ER (expression ratio) gene b0484 (E. coli K12 genes; 30 μg/mL ursolic acid): −1.1
- ER (expression ratio) gene b0485 (E. coli K12 genes; 30 μg/mL ursolic acid): −1.3
- ER (expression ratio) gene b0829 (E. coli K12 genes; 30 μg/mL ursolic acid): −1.5
- ER (expression ratio) gene b1729 (E. coli K12 genes; 30 μg/mL ursolic acid): −2
- ER (expression ratio) gene b2379 (E. coli K12 genes; 30 μg/mL ursolic acid): 1
- ER (expression ratio) gene b2789 (E. coli K12 genes; 30 μg/mL ursolic acid): −2.5
- ER (expression ratio) gene cspF (E. coli K12 genes; 30 μg/mL ursolic acid): −1.1
- ER (expression ratio) gene cspG (E. coli K12 genes; 30 μg/mL ursolic acid): −1.7
- ER (expression ratio) gene cysB (E. coli K12 genes; 30 μg/mL ursolic acid): −1.4
- ER (expression ratio) gene cysD (E. coli K12 genes; 30 μg/mL ursolic acid): −2.5
- ER (expression ratio) gene cysI (E. coli K12 genes; 30 μg/mL ursolic acid): −1.7
- ER (expression ratio) gene cysJ (E. coli K12 genes; 30 μg/mL ursolic acid): −3.3
- ER (expression ratio) gene cysK (E. coli K12 genes; 30 μg/mL ursolic acid): −3.3
- ER (expression ratio) gene frvR (E. coli K12 genes; 30 μg/mL ursolic acid): −2
- ER (expression ratio) gene gntU_1 (E. coli K12 genes; 30 μg/mL ursolic acid): −1.4
- ER (expression ratio) gene hdeA (E. coli K12 genes; 30 μg/mL ursolic acid): −1.4
- ER (expression ratio) gene hdeB (E. coli K12 genes; 30 μg/mL ursolic acid): −1.4
- ER (expression ratio) gene narH (E. coli K12 genes; 30 μg/mL ursolic acid): −1.4
- ER (expression ratio) gene pheM (E. coli K12 genes; 30 μg/mL ursolic acid): 1
- ER (expression ratio) gene pheP (E. coli K12 genes; 30 μg/mL ursolic acid): −1.1
- ER (expression ratio) gene rimL (E. coli K12 genes; 30 μg/mL ursolic acid): 1
- ER (expression ratio) gene rmf (E. coli K12 genes; 30 μg/mL ursolic acid): 1
- ER (expression ratio) gene rpml (E. coli K12 genes; 30 μg/mL ursolic acid): 1
- ER (expression ratio) gene slp (E. coli K12 genes; 30 μg/mL ursolic acid): −1.6
- ER (expression ratio) gene ugpB (E. coli K12 genes; 30 μg/mL ursolic acid): −1.5
- ER (expression ratio) gene ybhG (E. coli K12 genes; 30 μg/mL ursolic acid): −1.4
- ER (expression ratio) gene ybiK (E. coli K12 genes; 30 μg/mL ursolic acid): -2.2
- ER (expression ratio) gene yeeD (E. coli K12 genes; 30 μg/mL ursolic acid): −1.4
- ER (expression ratio) gene yeeE (E. coli K12 genes; 30 μg/mL ursolic acid): −2
- ER (expression ratio) gene yhaD (E. coli K12 genes; 30 μg/mL ursolic acid): −2.6
- ER (expression ratio) gene yhaF (E. coli K12 genes; 30 μg/mL ursolic acid): −2.4
- ER (expression ratio) gene yhaG (E. coli K12 genes; 30 μg/mL ursolic acid): −2.2
- ER (expression ratio) gene yhaU (E. coli K12 genes; 30 μg/mL ursolic acid): −4.2
- ER (expression ratio) gene yjeB (E. coli K12 genes; 30 μg/mL ursolic acid): 1
